Results reported in PubChem BioAssay (NCI).
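Compound exposure: 48 hours, 5 concentrations, 96-well plates. GI50 marks 50% less growth. TGI: concentration producing complete growth inhibition.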

Experiments:
Assay in all cases: NCI tumour cell line growth inhibition, 48 h
U251 CNS = tested on: U251 CNS
SNB-19 CNS = tested on: SNB-19 CNS
SK-MEL-2 melanoma = tested on: SK-MEL-2 melanoma
HS 578T breast = tested on: HS 578T breast
HL-60(TB) leukemia = tested on: HL-60(TB) leukemia
NCI-H226 lung = tested on: NCI-H226 lung
786-0 renal = tested on: 786-0 renal
HCT-116 colon = tested on: HCT-116 colon
HCT-15 colon = tested on: HCT-15 colon
OVCAR-3 ovarian = tested on: OVCAR-3 ovarian
K-562 leukemia = tested on: K-562 leukemia
HT29 colon = tested on: HT29 colon
HOP-62 NSCLC = tested on: HOP-62 NSCLC
SK-MEL-28 melanoma = tested on: SK-MEL-28 melanoma
BT-549 breast = tested on: BT-549 breast
SF-268 CNS = tested on: SF-268 CNS
RXF 393 renal = tested on: RXF 393 renal
A549 NSCLC = tested on: A549 NSCLC
HOP-92 NSCLC = tested on: HOP-92 NSCLC
SW-620 colon = tested on: SW-620 colon
MDA-MB-231 breast = tested on: MDA-MB-231 breast
UACC-257 melanoma = tested on: UACC-257 melanoma
HCC-2998 colon = tested on: HCC-2998 colon
PC-3 prostate = tested on: PC-3 prostate
RPMI-8226 leukemia = tested on: RPMI-8226 leukemia
CAKI-1 renal = tested on: CAKI-1 renal
T-47D breast = tested on: T-47D breast
SK-OV-3 ovarian = tested on: SK-OV-3 ovarian
NCI-H522 lung = tested on: NCI-H522 lung
OVCAR-4 ovarian = tested on: OVCAR-4 ovarian
SK-MEL-5 melanoma = tested on: SK-MEL-5 melanoma
TK-10 renal = tested on: TK-10 renal
UACC-62 melanoma = tested on: UACC-62 melanoma
NCI-H23 lung = tested on: NCI-H23 lung
NCI-H460 lung = tested on: NCI-H460 lung
MALME-3M melanoma = tested on: MALME-3M melanoma
OVCAR-8 ovarian = tested on: OVCAR-8 ovarian
NCI/ADR-RES ovarian = tested on: NCI/ADR-RES ovarian
SR leukemia = tested on: SR leukemia
MOLT-4 leukemia = tested on: MOLT-4 leukemia
SF-295 CNS = tested on: SF-295 CNS
MCF7 breast = tested on: MCF7 breast
SF-539 CNS = tested on: SF-539 CNS
OVCAR-5 ovarian = tested on: OVCAR-5 ovarian
DU-145 prostate = tested on: DU-145 prostate
COLO 205 colon = tested on: COLO 205 colon
UO-31 renal = tested on: UO-31 renal
M14 melanoma = tested on: M14 melanoma
KM12 colon = tested on: KM12 colon
A498 renal = tested on: A498 renal
SNB-75 CNS = tested on: SNB-75 CNS
SN12C renal = tested on: SN12C renal
MDA-MB-435 = tested on: MDA-MB-435
IGROV1 ovarian = tested on: IGROV1 ovarian
CCRF-CEM leukemia = tested on: CCRF-CEM leukemia
ACHN renal = tested on: ACHN renal

O=C1Nc2ccccc2/C1=C\c1c[nH]c2ccc(Br)cc12
GI50 (U251 CNS): 2390 nM | TGI (U251 CNS): 7.09 µM | GI50 (SNB-19 CNS): 3.71 µM | TGI (SNB-19 CNS): 25.5 µM | GI50 (SK-MEL-2 melanoma): 1990 nM | TGI (SK-MEL-2 melanoma): 4.41 µM | GI50 (HS 578T breast): 2200 nM | TGI (HS 578T breast): 8.33 µM | GI50 (HL-60(TB) leukemia): 2790 nM | TGI (HL-60(TB) leukemia): 7.88 µM | GI50 (NCI-H226 lung): 6.23 µM | TGI (NCI-H226 lung): 41.9 µM | GI50 (786-0 renal): 3.82 µM | TGI (786-0 renal): 14.7 µM | GI50 (HCT-116 colon): 1610 nM | TGI (HCT-116 colon): 3.11 µM | GI50 (HCT-15 colon): 2120 nM | TGI (HCT-15 colon): 5.59 µM | GI50 (OVCAR-3 ovarian): 2290 nM | TGI (OVCAR-3 ovarian): 5.58 µM | GI50 (K-562 leukemia): 3.26 µM | TGI (K-562 leukemia): 8 µM | GI50 (HT29 colon): 2750 nM | TGI (HT29 colon): 6.56 µM | GI50 (HOP-62 NSCLC): 3.5 µM | TGI (HOP-62 NSCLC): 13.3 µM | GI50 (SK-MEL-28 melanoma): 4.16 µM | TGI (SK-MEL-28 melanoma): 20.9 µM | GI50 (BT-549 breast): 4.26 µM | TGI (BT-549 breast): 19.5 µM | GI50 (SF-268 CNS): 3.3 µM | TGI (SF-268 CNS): 16.2 µM | GI50 (RXF 393 renal): 3.01 µM | TGI (RXF 393 renal): 8.72 µM | GI50 (A549 NSCLC): 2260 nM | TGI (A549 NSCLC): 6.23 µM | GI50 (HOP-92 NSCLC): 573 nM | TGI (HOP-92 NSCLC): 3.3 µM | GI50 (SW-620 colon): 2890 nM | TGI (SW-620 colon): 10.7 µM | GI50 (MDA-MB-231 breast): 1630 nM | TGI (MDA-MB-231 breast): 3.24 µM | GI50 (UACC-257 melanoma): 2910 nM | TGI (UACC-257 melanoma): 14.5 µM | GI50 (HCC-2998 colon): 1860 nM | TGI (HCC-2998 colon): 3.45 µM | GI50 (PC-3 prostate): 2420 nM | TGI (PC-3 prostate): 10.3 µM | GI50 (RPMI-8226 leukemia): 2320 nM | TGI (RPMI-8226 leukemia): 7.93 µM | GI50 (CAKI-1 renal): 2670 nM | TGI (CAKI-1 renal): 13.6 µM | GI50 (T-47D breast): 3.65 µM | TGI (T-47D breast): 30.3 µM | GI50 (SK-OV-3 ovarian): 3.63 µM | TGI (SK-OV-3 ovarian): 15 µM | GI50 (NCI-H522 lung): 1830 nM | TGI (NCI-H522 lung): 3.77 µM | GI50 (OVCAR-4 ovarian): 2700 nM | TGI (OVCAR-4 ovarian): 22.5 µM | GI50 (SK-MEL-5 melanoma): 4.41 µM | TGI (SK-MEL-5 melanoma): 17.2 µM | GI50 (TK-10 renal): 3.99 µM | TGI (TK-10 renal): 9.5 µM | GI50 (UACC-62 melanoma): 1710 nM | TGI (UACC-62 melanoma): 3.72 µM | GI50 (NCI-H23 lung): 1920 nM | TGI (NCI-H23 lung): 5.61 µM | GI50 (NCI-H460 lung): 2110 nM | TGI (NCI-H460 lung): 4.98 µM | GI50 (MALME-3M melanoma): 5.55 µM | TGI (MALME-3M melanoma): 25.1 µM | GI50 (OVCAR-8 ovarian): 2850 nM | TGI (OVCAR-8 ovarian): 10.4 µM | GI50 (NCI/ADR-RES ovarian): 2490 nM | TGI (NCI/ADR-RES ovarian): 7.04 µM | GI50 (SR leukemia): 2590 nM | TGI (SR leukemia): 6.32 µM | GI50 (MOLT-4 leukemia): 2760 nM | TGI (MOLT-4 leukemia): 8.6 µM | GI50 (SF-295 CNS): 3.99 µM | TGI (SF-295 CNS): 21.6 µM | GI50 (MCF7 breast): 2430 nM | TGI (MCF7 breast): 11.2 µM | GI50 (SF-539 CNS): 4.77 µM | TGI (SF-539 CNS): 17.1 µM | GI50 (OVCAR-5 ovarian): 2260 nM | TGI (OVCAR-5 ovarian): 5.86 µM | GI50 (DU-145 prostate): 3.23 µM | TGI (DU-145 prostate): 11 µM | GI50 (COLO 205 colon): 1770 nM | TGI (COLO 205 colon): 3.23 µM | GI50 (UO-31 renal): 2220 nM | TGI (UO-31 renal): 8.79 µM | GI50 (M14 melanoma): 1670 nM | TGI (M14 melanoma): 3.68 µM | GI50 (KM12 colon): 633 nM | TGI (KM12 colon): 2370 nM | GI50 (A498 renal): 1880 nM | TGI (A498 renal): 6.31 µM | GI50 (SNB-75 CNS): 2680 nM | TGI (SNB-75 CNS): 9.37 µM | GI50 (SN12C renal): 2630 nM | TGI (SN12C renal): 7.6 µM | GI50 (MDA-MB-435): 2440 nM | TGI (MDA-MB-435): 6.89 µM | GI50 (IGROV1 ovarian): 2570 nM | TGI (IGROV1 ovarian): 11.2 µM | GI50 (CCRF-CEM leukemia): 3.18 µM | TGI (CCRF-CEM leukemia): 10.5 µM | GI50 (ACHN renal): 2820 nM | TGI (ACHN renal): 10.1 µM
